Publication PMC7827406, “Structure–Activity Relationship (SAR) Study of Spautin-1 to Entail the Discovery of Novel NEK4 Inhibitors” (International Journal of Molecular Sciences, 2021)
Like-named read-outs stand apart in the source and are kept apart here.

Key:
Assay in all cases: biochemical
Set-up in all cases: Eurofins KinaseProfiler full panel at Km ATP, residual kinase activity (%) relative to DMSO
SGK3(h) = biological target: T1, SGK3(h) (Homo sapiens, UniProt Q96BR1)
T1 sequence (Q96BR1 1-496): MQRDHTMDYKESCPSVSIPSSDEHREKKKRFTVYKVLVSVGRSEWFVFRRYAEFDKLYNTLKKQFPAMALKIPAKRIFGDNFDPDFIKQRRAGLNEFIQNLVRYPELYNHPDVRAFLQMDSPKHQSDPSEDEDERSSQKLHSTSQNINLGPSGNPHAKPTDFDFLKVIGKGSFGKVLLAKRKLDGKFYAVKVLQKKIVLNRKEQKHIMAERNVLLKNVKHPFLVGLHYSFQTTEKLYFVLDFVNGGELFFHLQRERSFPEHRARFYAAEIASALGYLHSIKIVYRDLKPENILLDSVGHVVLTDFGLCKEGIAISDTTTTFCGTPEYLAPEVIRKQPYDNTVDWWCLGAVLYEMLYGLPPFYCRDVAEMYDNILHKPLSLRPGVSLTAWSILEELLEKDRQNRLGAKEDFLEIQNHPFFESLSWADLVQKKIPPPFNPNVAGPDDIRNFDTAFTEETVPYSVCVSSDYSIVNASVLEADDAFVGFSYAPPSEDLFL
How it was run: (§1)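 Radiometric kinase activity assays were run with ATP at Km and compounds at 10 µM, and remaining activity (%) was reported. A separate competitive binding screen measured DNA-tagged kinase displaced from immobilized active-site ligands by qPCR, giving percent kinase still bound at 10 µM compound in DMSO.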

IR(h), activated = biological target: T2, IR(h), activated (Homo sapiens, UniProt P06213)
T2 construct: gene INSR
How it was run: as §1

IKKα(h) = biological target: T3, IKKα(h) (Homo sapiens, UniProt O15111)
T3 construct: gene CHUK
T3 sequence (O15111 1-745): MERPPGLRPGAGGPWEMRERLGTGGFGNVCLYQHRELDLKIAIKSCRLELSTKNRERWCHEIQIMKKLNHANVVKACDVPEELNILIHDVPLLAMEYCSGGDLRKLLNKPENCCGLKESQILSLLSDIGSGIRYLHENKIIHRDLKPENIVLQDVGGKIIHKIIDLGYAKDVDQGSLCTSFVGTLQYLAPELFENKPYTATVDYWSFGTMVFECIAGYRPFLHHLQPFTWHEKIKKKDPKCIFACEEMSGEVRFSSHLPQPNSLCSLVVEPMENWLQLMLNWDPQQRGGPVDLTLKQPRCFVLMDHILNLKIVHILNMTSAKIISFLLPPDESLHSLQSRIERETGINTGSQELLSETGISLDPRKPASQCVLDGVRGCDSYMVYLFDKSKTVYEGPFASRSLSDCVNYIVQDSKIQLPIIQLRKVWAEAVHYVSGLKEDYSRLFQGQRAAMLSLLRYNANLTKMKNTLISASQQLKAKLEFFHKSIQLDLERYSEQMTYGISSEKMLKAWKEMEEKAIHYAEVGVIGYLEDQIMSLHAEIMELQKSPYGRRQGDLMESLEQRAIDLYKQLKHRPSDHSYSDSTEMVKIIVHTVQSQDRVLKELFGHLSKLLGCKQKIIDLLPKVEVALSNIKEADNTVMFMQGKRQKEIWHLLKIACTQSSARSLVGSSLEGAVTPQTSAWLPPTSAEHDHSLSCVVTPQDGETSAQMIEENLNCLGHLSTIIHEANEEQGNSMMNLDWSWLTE
How it was run: as §1

TAO1(h) = biological target: T4, TAO1(h) (Homo sapiens, UniProt Q7L7X3)
T4 construct: gene TAOK1
T4 sequence (Q7L7X3 1-1001): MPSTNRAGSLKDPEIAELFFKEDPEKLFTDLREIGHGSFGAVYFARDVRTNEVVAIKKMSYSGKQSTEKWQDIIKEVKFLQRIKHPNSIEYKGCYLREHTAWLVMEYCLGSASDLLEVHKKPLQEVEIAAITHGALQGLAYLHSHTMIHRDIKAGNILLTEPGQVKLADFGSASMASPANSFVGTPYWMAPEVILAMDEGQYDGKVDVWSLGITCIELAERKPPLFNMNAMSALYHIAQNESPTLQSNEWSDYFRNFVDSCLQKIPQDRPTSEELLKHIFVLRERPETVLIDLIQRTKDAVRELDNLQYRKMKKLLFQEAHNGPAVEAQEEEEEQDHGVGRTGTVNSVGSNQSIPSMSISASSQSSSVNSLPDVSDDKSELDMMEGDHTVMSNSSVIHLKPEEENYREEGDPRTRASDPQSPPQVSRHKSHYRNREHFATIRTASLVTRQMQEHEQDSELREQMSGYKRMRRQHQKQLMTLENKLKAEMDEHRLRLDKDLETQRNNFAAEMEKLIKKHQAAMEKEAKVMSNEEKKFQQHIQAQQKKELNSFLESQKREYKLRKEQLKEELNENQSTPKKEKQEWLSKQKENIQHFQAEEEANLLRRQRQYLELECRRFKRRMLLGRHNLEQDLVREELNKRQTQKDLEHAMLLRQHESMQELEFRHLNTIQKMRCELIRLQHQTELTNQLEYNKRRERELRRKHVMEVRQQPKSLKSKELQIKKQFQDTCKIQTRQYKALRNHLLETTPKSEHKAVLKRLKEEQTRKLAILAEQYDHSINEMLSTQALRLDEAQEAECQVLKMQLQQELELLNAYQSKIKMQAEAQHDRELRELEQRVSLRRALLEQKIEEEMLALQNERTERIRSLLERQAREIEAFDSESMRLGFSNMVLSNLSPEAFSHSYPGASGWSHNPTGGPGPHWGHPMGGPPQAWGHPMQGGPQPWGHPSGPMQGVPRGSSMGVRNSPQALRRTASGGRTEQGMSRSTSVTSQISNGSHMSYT
How it was run: as §1

[1] = read-out: Residual activity (%) Spautin-1 5aa
[2] = read-out: Residual activity (%) 5as
[3] = read-out: Residual activity (%) 5at
[4] = read-out: Residual activity (%) 5ay

T2 sequence (P06213 whole entry): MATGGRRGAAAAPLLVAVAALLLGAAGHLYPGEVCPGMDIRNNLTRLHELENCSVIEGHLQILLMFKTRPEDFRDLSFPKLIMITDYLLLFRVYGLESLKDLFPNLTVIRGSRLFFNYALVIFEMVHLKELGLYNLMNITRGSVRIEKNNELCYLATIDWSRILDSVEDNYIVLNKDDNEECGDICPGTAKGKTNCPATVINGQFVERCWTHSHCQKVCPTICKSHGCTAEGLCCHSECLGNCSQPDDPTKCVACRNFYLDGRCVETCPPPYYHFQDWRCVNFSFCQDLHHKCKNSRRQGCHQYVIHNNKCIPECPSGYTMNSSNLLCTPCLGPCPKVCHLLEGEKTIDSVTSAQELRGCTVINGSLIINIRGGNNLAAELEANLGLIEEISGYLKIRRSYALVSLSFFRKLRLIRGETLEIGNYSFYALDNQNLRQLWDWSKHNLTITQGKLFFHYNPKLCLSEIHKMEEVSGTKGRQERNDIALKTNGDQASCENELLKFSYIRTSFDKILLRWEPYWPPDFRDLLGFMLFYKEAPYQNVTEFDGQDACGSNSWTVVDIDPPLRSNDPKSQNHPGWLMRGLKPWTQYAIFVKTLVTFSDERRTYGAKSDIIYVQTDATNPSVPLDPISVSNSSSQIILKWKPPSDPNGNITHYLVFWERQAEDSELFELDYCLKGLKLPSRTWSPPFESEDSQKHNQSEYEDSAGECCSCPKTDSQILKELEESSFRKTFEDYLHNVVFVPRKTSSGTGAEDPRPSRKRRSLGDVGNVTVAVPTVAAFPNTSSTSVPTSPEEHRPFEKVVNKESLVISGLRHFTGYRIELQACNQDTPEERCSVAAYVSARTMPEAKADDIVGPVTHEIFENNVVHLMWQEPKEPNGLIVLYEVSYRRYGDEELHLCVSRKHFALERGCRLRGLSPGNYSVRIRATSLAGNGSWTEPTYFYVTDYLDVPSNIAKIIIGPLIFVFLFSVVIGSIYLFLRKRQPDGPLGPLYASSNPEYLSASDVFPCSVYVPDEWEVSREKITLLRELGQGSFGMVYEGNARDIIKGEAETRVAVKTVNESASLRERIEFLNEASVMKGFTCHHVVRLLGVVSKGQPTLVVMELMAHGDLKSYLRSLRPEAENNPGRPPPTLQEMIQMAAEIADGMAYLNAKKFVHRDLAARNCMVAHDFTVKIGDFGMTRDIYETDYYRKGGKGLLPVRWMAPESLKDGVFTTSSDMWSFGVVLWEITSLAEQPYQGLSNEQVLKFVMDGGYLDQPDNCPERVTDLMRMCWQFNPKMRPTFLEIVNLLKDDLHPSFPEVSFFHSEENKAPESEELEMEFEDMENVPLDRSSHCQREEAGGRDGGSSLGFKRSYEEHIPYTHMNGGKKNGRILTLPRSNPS

Fc1ccc(CNc2ncnc3ccc(F)cc23)cc1 [5aa, 6-Fluoro-N-(4-fluorobenzyl)-4-Quinazolinamine]
remaining activity at 10 µM (SGK3(h); [1]): 95%
remaining activity at 10 µM (IR(h), activated; [1]): 98%
remaining activity at 10 µM (IKKα(h); [1]): 72%
remaining activity at 10 µM (TAO1(h); [1]): 99%

Fc1ccc(CCNc2ncnc3ccc(F)cc23)cc1 [5as, 6-Fluoro-N-[2-(4-Fluorophenyl)Ethyl]-4-Quinazolinamine]
remaining activity at 10 µM (SGK3(h); [2]): 88%
remaining activity at 10 µM (IR(h), activated; [2]): 64%
remaining activity at 10 µM (IKKα(h); [2]): 100%
remaining activity at 10 µM (TAO1(h); [2]): 104%

Fc1ccc2ncnc(NCCc3ccc(Cl)cc3)c2c1 [5at, N-[2-(4-Chlorophenyl)Ethyl]-6-Fluoro-4-Quinazolinamine]
remaining activity at 10 µM (SGK3(h); [3]): 93%
remaining activity at 10 µM (IR(h), activated; [3]): 76%
remaining activity at 10 µM (IKKα(h); [3]): 91%
remaining activity at 10 µM (TAO1(h); [3]): 97%

COc1ccc2ncnc(Nc3cccc(F)c3)c2c1 [5ay, N-(3-Fluorophenyl)-6-Methoxy-4-Quinazolinamine]
remaining activity at 10 µM (SGK3(h); [4]): 91%
remaining activity at 10 µM (IR(h), activated; [4]): 71%
remaining activity at 10 µM (IKKα(h); [4]): 86%
remaining activity at 10 µM (TAO1(h); [4]): 95%
